Reference: patent US9868715B2 (THE BOARD OF REGENTS OF THE UNIVERSITY OF TEXAS SYSTEMS, priority 2014, dated 2018)
“Also recorded” adds a separate entry of the source.

Assays:
[1] = molecular target: T1, human CBS (cystathionine-β-synthase) (Homo sapiens, UniProt P35520); experiment: H2S production by recombinant CBS; type: biochemical; conditions: 100 μM compound; H2S production as % of control (100%)
T1 construct: GST (N); made in house; host or cells: E. coli BL21(DE3) Codon Plus
T1 sequence (P35520 1-551): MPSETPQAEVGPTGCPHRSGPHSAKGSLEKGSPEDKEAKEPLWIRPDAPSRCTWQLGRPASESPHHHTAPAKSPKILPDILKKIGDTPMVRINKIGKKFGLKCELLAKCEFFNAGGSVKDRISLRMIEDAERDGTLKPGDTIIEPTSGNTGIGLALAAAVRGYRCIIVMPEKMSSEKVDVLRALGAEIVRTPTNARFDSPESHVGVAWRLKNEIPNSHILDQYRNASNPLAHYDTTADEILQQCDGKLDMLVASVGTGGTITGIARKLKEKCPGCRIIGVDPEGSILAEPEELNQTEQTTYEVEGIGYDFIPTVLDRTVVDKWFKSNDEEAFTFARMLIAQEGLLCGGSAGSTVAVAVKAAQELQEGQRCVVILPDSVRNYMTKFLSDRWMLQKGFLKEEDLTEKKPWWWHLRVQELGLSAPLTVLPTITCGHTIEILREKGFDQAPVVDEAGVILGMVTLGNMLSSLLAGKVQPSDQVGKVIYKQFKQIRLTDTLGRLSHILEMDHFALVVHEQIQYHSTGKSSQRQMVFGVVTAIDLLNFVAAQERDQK
Procedure: Recombinant human CBS protein expression and purification. The expression and purification of human CBS was performed as described previously (Asimakopoulou et al. 2013, Br J Pharmacol. 169(4):922-32). Briefly, E. Coli BL21(DE3) Codon Plus cells (Stratagene, La Jolla, Calif., USA) containing the expression vector pGEX-Kg/GST-CBS were grown at 37° C. and 180 rpm in LuriaBertani (LB) broth medium containing 100 μg/ml ampicillin to an absorption of 0.6-0.8 at 600 nm. Protein expression was induced by addition of 0.1 mM IPTG (isopropyl-b-D-thiogalactopyranoside) and cells were further incubated at 30° C. overnight. The bacteria were harvested and sonicated in lysis buffer PBS (140 mM NaCl, 2.7 mM KCl, 10 mM Na2HPO4, 1.8 mM KH2PO4, pH 7.8) containing a protease inhibitors cocktail (Sigma). The protein lysate was loaded onto a GSTrap FF 1 ml affinity column (Amersham Biosciences) and the GST-CBS recombinant protein was eluted with the elution buffer (50 mM Tris-HCl, 10 mM reduced glutathione, pH 8.0) and then dialyzed and concentrated in 10 mM sodium phosphate buffer (pH 8.2) and DTT (1 mM).
Measurement of H2S production by recombinant CBS. The measurement of H2S production by recombinant CBS enzyme was performed as described (Asimakopoulou et al. 2013, Br J Pharmacol. 169(4):922-32). Briefly, each test consisted of a 100 μl reaction mixture in 50 mM sodium phosphate buffer pH 8.2 containing 1 μg of the purified human CBS enzyme, 0.01 mM pyridoxal-5′-phosphate (PLP), 10 mM L-cysteine and 0.5 mM homocysteine. […] The reaction was initiated by transferring the Eppendorf tubes from ice to a 37° C. shaking water bath. After 60 minutes of incubation at 37° C., the reaction was terminated by adding 1% ZnAc followed by 10% trichloroacetic acid. Subsequently, N,N-dimethylphenylendiamine sulfate (20 mM in 7.2 M HCl) and FeCl3 (30 mM in 1.2 M HCl) were added and the optical absorbance of the solutions was measured at 650 nm.

[2] = tested on: C57BL/6 mice with cerulein-induced CP; experiment: Chronic pancreatitis (CP) animal model, fibronectin IHC; type: in vivo; conditions: 0.5 mg/kg daily oral gavage, 3 weeks
Procedure: In order to evaluate the anti-fibrotic effect of these new compounds as a proof-of-concept, the compounds were tested in a preclinical animal model of CP. CP was induced in mice using the well-established model of repeated cerulean (CR) injections (Lerch and Gorelick 2013, Gastroenterology 144:1180; Aghdassi et al. 2011, Fibrogenesis Tissue Repair 4:26). […] After four weeks, the pancreata were processed and stained for fibronectin, which is a major component of the ECM. […] ImageJ analysis of the slides quantified the significant decrease in fibrosis (p<0.001) (FIG. 4E).
Chronic pancreatitis (CP) animal model. Animal experiments were conducted under an Institutional Animal Care and Use Committee-approved protocol. CP was induced in C57BL/6 mice using supraoptimal pancreatic stimulation with cerulein (CR), a cholecystokinin analogue (Bachem, Torrance, Calif.). CP (50 μg CR/kg mouse weight) was administered via intraperitoneal route hourly for 5 h for 3 d/week for a total of 4 weeks. Control mice received phosphate buffered saline (PBS) injections following the same schedule. […] At the end of Week 4, the mice were anesthestized with isoflurane and sacrificed per protocol. The pancreata were quickly harvested and processed.
Immunohistochemistry (IHC) and image analysis. Pancreata were formalin-fixed and paraffin-embedded. Prior to staining, sections (5 μm) were deparaffinized with xylene, dehydrated with ethanol, and subjected to heat-mediated antigen retrieval (DAKO, Carpinteria, Calif.) to optimize antigen immunoreactivity. Fibronectin antibody (1:600; Santa Cruz Biotechnology, Dallas, Tex.), and biotinylated anti-goat IgG (1:400; Vector Laboratories Inc., Burlingame, Calif.) were used. […] The percent area of brown fibronectin staining was quantified using the Image Processing and Analysis in Java (ImageJ) 1.46r software (NIH, Bethesda, Md.) and a color deconvolution plug-in (Ruifrok and Johnston, Anal Quant Cytol Histol 2001, 23:291; Schneider et al., Nat Methods 2012, 9:671).

[3] = Aqueous solubility by HPLC analysis method; type: physicochemical; conditions: in the form of HCl salt

activity at 100 µM [1] [%] | Aqueous solubility compared with apigenin, result in words [3] | Aqueous solubility, saturated concentration [3] [mg/mL] | SMILES | Pancreatic fibrosis in CP model (fibronectin stain), result in words [2]
119 |  |  | COc1cc(OC)c2c(=O)cc(-c3ccc(OCC4CO4)cc3)oc2c1 (centres unmarked) [Compound 23, 5,7-Dimethoxy-2-(4-oxiranylmethoxyphenyl)-chromen-4-one] | as efficacious as apigenin in reducing pancreatic fibrosis; also recorded: significantly decreased the stromal fibrosis of CP; also recorded: significantly reduced the fibrotic response; also recorded: significant efficacy to reduce pancreatic fibrosis
79 | significantly improved solubility | 84.1 | COc1cc(OC)c2c(=O)cc(-c3ccc(OCC(O)CN4CCCCC4)cc3)oc2c1 (centres unmarked) [Compound 24, 2-(4-(2-Hydroxy-3-piperidin-1-yl-propoxy)phenyl)-5,7-dimethoxy-chromen-4-one] | as efficacious as apigenin in reducing pancreatic fibrosis; also recorded: significantly decreased the stromal fibrosis of CP; also recorded: significantly reduced the fibrotic response; also recorded: significant efficacy to reduce pancreatic fibrosis

SMILES | activity at 100 µM [1] [%] | Aqueous solubility compared with apigenin, result in words [3] | Aqueous solubility, saturated concentration [3] [mg/mL] | Pancreatic fibrosis in CP model (fibronectin stain), result in words [2]
O=c1cc(-c2ccc(O)cc2)oc2cc(O)cc(O)c12 [Apigenin, 4′,5,7-trihydroxyflavone, reference compound] | 80.8 |  |  | significantly decreased the stromal fibrosis of CP; also recorded: significantly reduced the fibrotic response; also recorded: significant efficacy to reduce pancreatic fibrosis
